Measured values as given in EPA's CvTdb concentration-time database.

Key:
[1] = test system: Rat; experiment: concentration in kidney after dosing; details: 1 h; dosed: Perfluorodecanoic acid; 10 mg/kg; oral; Female; Harlan Sprague Dawley
[2] = test system: Rat; experiment: concentration in kidney after dosing; details: 1 h; dosed: Perfluorodecanoic acid; 10 mg/kg; oral; Male; Harlan Sprague Dawley
[3] = test system: Rat; experiment: concentration in brain after dosing; details: 864 h; dosed: Perfluorodecanoic acid; 10 mg/kg; oral; Male; Harlan Sprague Dawley
[4] = test system: Rat; experiment: concentration in plasma after dosing; details: dosed: Perfluorodecanoic acid, 2 mg/kg, iv, Male, F344
[5] = test system: Rat; experiment: concentration in liver after dosing; details: 1848 h; dosed: Perfluorodecanoic acid; 10 mg/kg; oral; Female; Harlan Sprague Dawley
[6] = test system: Rat; experiment: concentration in kidney after dosing; details: 24 h; dosed: Perfluorodecanoic acid; 10 mg/kg; oral; Female; Harlan Sprague Dawley
[7] = test system: Rat; experiment: concentration in plasma after dosing; details: dosed: Perfluorodecanoic acid, 2 mg/kg, iv, Male, F344; remark: listed apart in the source
[8] = test system: Rat; experiment: concentration in liver after dosing; details: 3360 h; dosed: Perfluorodecanoic acid; 10 mg/kg; oral; Male; Harlan Sprague Dawley
[9] = test system: Rat; experiment: concentration in plasma after dosing; details: dosed: dichloroacetic acid, 10 mg/kg, oral, Male, Harlan Sprague Dawley
[10] = test system: Rat; experiment: concentration in plasma after dosing; details: dosed: dichloroacetic acid, 100 mg/kg, oral, Male, F344
[11] = test system: Rat; experiment: concentration in plasma after dosing; details: 6 h; dosed: Primidone; 130 mg/kg; oral; Female; F344
[12] = test system: Rat; experiment: concentration in plasma after dosing; details: 9 h; dosed: Primidone; 80 mg/kg; oral; Female; F344
[13] = test system: Rat; experiment: concentration in plasma after dosing; details: 1.5 h; dosed: Primidone; 80 mg/kg; oral; Female; F344
[14] = test system: Rat; experiment: concentration in plasma after dosing; details: dosed: Wyeth-14643, 1.0 mg/kg, oral, Male, Sprague-Dawley
[15] = test system: Rat; experiment: concentration in plasma after dosing; details: dosed: Wyeth-14643, 5.0 mg/kg, oral, Male, Sprague-Dawley
[16] = test system: Rat; experiment: concentration in plasma after dosing; details: 2 h; dosed: Wyeth-14643; 2.0 mg/kg; iv; Male; Sprague-Dawley
[17] = test system: Rat; experiment: concentration in brain after dosing; details: 0.5 h; dosed: Fluorotelomer alcohol 8+2; 24 mg/kg; oral; Male; Harlan Sprague Dawley
[18] = test system: Rat; experiment: concentration in plasma after dosing; details: dosed: Fluorotelomer alcohol 8+2, 12 mg/kg, oral, Male, Harlan Sprague Dawley
[19] = test system: Rat; experiment: concentration in brain after dosing; details: 1 h; dosed: Fluorotelomer alcohol 8+2; 80 mg/kg; oral; Female; Harlan Sprague Dawley
[20] = test system: Rat; experiment: concentration in plasma after dosing; details: dosed: Fluorotelomer alcohol 8+2, 40 mg/kg, iv, Male, F344
[21] = test system: Rat; experiment: concentration in plasma after dosing; details: 5.333 h; dosed: Thiodiglycolic Acid; 20 mg/kg; iv; Male; Harlan Sprague Dawley
[22] = test system: Rat; experiment: concentration in heart after dosing; details: 5.333 h; dosed: Thiodiglycolic Acid; 20 mg/kg; iv; Female; Harlan Sprague Dawley
[23] = test system: Rat; experiment: concentration in plasma after dosing; details: 10 min; dosed: Thiodiglycolic Acid; 20 mg/kg; iv; Female; Harlan Sprague Dawley
[24] = test system: Rat; experiment: concentration in liver after dosing; details: 1 h; dosed: Thiodiglycolic Acid; 20 mg/kg; iv; Male; Harlan Sprague Dawley
[25] = test system: Rat; experiment: concentration in heart after dosing; details: 3 h; dosed: Thiodiglycolic Acid; 20 mg/kg; iv; Female; Harlan Sprague Dawley
[26] = test system: Rat; experiment: concentration in liver after dosing; details: 20 min; dosed: Thiodiglycolic Acid; 20 mg/kg; iv; Female; Harlan Sprague Dawley
[27] = test system: Rat; experiment: concentration in plasma after dosing; details: 40 min; dosed: Thiodiglycolic Acid; 20 mg/kg; iv; Male; Harlan Sprague Dawley
[28] = test system: Rat; experiment: concentration in plasma after dosing; details: 10 h; dosed: Thiodiglycolic Acid; 20 mg/kg; iv; Male; F344
[29] = test system: Rat; experiment: concentration in heart after dosing; details: 3 h; dosed: Thiodiglycolic Acid; 20 mg/kg; iv; Female; Harlan Sprague Dawley; remark: listed apart in the source
[30] = test system: Rat; experiment: concentration in liver after dosing; details: 10 h; dosed: Thiodiglycolic Acid; 20 mg/kg; iv; Female; Harlan Sprague Dawley
[31] = test system: Rat; experiment: concentration in heart after dosing; details: 4 h; dosed: Bis 2-Chloroethoxy Methane; 20 mg/kg; iv; Female; F344
[32] = test system: Rat; experiment: concentration in heart after dosing; details: 40 min; dosed: Bis 2-Chloroethoxy Methane; 20 mg/kg; iv; Female; F344
[33] = test system: Rat; experiment: concentration in heart after dosing; details: 6 h; dosed: Bis 2-Chloroethoxy Methane; 20 mg/kg; iv; Female; F344
[34] = test system: Rat; experiment: concentration in thymus after dosing; details: 4 h; dosed: Bis 2-Chloroethoxy Methane; 20 mg/kg; iv; Female; F344
[35] = test system: Rat; experiment: concentration in plasma after dosing; details: 10 min; dosed: Bis 2-Chloroethoxy Methane; 20 mg/kg; iv; Female; F344
[36] = test system: Rat; experiment: concentration in thymus after dosing; details: 6 h; dosed: Bis 2-Chloroethoxy Methane; 20 mg/kg; iv; Female; F344
[37] = test system: Rat; experiment: concentration in plasma after dosing; details: 15 h; dosed: Di-n-butyl phthalate; 100 mg/kg; oral; Male; Sprague-Dawley
[38] = test system: Rat; experiment: concentration in plasma after dosing; details: 10 h; dosed: Di-n-butyl phthalate; 100 mg/kg; oral; Male; Sprague-Dawley

O=C(O)C(F)(F)C(F)(F)C(F)(F)C(F)(F)C(F)(F)C(F)(F)C(F)(F)C(F)(F)C(F)(F)F [Perfluorodecanoic acid]
concentration in kidney [1]: 20600 ng/g
concentration in kidney [2]: 8630 ng/g
concentration in brain [3]: 917 ng/g
concentration in plasma ([4]; 12 h): 4320 ng/mL
concentration in plasma ([4]; 1200 h): 1720 ng/mL
concentration in liver [5]: 27400 ng/g
concentration in kidney [6]: 67300 ng/g
concentration in plasma ([7]; 12 h): 6270 ng/mL
concentration in plasma ([7]; 1200 h): 874 ng/mL
concentration in liver [8]: 6930 ng/g

O=C(O)C(Cl)Cl [dichloroacetic acid]
concentration in plasma ([9]; 2 min): 398 ng/mL
concentration in plasma ([9]; 0.5 h): 637 ng/mL
concentration in plasma ([10]; 10 min): 11900 ng/mL
concentration in plasma ([10]; 4 h): 55600 ng/mL

CCC1(c2ccccc2)C(=O)NC(=O)NC1=O [Phenobarbital]
concentration in plasma [11]: 2210 ng/mL
concentration in plasma [12]: 2370 ng/mL
concentration in plasma [13]: 800 ng/mL

Cc1cccc(Nc2cc(Cl)nc(SCC(=O)O)n2)c1C
concentration in plasma ([14]; 0.25 h): 397 ng/mL
concentration in plasma ([14]; 4 h): 308 ng/mL
concentration in plasma ([15]; 5 min): 1330 ng/mL
concentration in plasma ([15]; 8 h): 155 ng/mL
concentration in plasma [16]: 870 ng/mL

OCCC(F)(F)C(F)(F)C(F)(F)C(F)(F)C(F)(F)C(F)(F)C(F)(F)C(F)(F)F [Fluorotelomer alcohol 8+2]
concentration in brain [17]: 1810 ng/g
concentration in plasma ([18]; 5 min): 396 ng/mL
concentration in plasma ([18]; 3 h): 196 ng/mL
concentration in brain [19]: 3370 ng/g
concentration in plasma ([20]; 5 min): 22400 ng/mL
concentration in plasma ([20]; 3 h): 516 ng/mL

O=C(O)CSCC(=O)O [Thiodiglycolic Acid]
concentration in plasma [21]: 198 ng/mL
concentration in heart [22]: 642 ng/g
concentration in plasma [23]: 40400 ng/mL
concentration in liver [24]: 126000 ng/g
concentration in heart [25]: 1150 ng/g
concentration in liver [26]: 91400 ng/g
concentration in plasma [27]: 3090 ng/mL
concentration in plasma [28]: 304 ng/mL
concentration in heart [29]: 620 ng/g
concentration in liver [30]: 1650 ng/g

ClCCOCOCCCl [Bis 2-Chloroethoxy Methane]
concentration in heart [31]: 55.5 ng/g
concentration in heart [32]: 5350 ng/g
concentration in heart [33]: 28.6 ng/g
concentration in thymus [34]: 108 ng/g
concentration in plasma [35]: 9960 ng/mL
concentration in thymus [36]: 61.4 ng/g

CCCCOC(=O)c1ccccc1C(=O)O [Mono-n-butyl phthalate]
concentration in plasma [37]: 900 ng/mL
concentration in plasma [38]: 1170 ng/mL
